Each structure is given as a SMILES string.

The experiment has as its target T1, human CRTH2 (Homo sapiens, UniProt Q9Y5Y4).
T1 construct: expressed in transfected cells
T1 sequence (Q9Y5Y4 1-395): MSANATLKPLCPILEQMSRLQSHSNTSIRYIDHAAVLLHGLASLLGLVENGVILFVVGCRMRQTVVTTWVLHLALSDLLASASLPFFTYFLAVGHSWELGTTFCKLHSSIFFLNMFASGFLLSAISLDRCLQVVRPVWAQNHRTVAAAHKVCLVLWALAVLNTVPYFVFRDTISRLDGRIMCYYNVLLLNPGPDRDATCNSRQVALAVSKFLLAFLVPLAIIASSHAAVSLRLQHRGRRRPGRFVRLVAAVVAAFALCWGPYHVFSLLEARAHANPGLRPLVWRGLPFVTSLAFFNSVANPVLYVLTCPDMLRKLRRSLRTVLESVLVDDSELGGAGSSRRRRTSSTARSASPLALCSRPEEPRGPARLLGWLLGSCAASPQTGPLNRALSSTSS
Briefly: Human CRTH2 Receptor Binding Assay (whole cell, [3H]ramatroban competition). The following applies: CHO-K1 cells stably expressing human CRTH2 and G-alpha16; 20 nM [3H]ramatroban; 1 hour, room temperature. An excerpt: A whole cell receptor binding assay using [^3H]ramatroban as the competing radioactive ligand was employed to evaluate the compound binding activity to human CRTH2. The radioactive ligand [^3H]ramatroban was synthesized according to Sugimoto et. al. (Eur. J. Pharmacol. 524, 30-37, 2005) to a specific activity of 42 Ci/mmol.
A cell line stably expressing human CRTH2 was established by transfecting CHO-K1 cells with two mammalian expression vectors that harbored human CRTH2 and G-alpha16 cDNAs, respectively, using FuGene® 6 transfection reagent (from Roche). Stable clones expressing CRTH2 were selected by staining each clone with BM16 (BD Pharmingen™ from BD Biosciences, a division of Becton, Dickinson and Company), which is a rat monoclonal antibody to human CRTH2. The cells were maintained as monolayer cultures in Ham's F-12 medium containing 10% fetal bovine serum, 100 units/mL penicillin, 100 μg/mL streptomycin, 2 mM glutamine, 0.5 mg/mL G418 (geneticin) for CRTH2, and 0.2 mg/mL hygromycin-B (for G-alpha 16). For whole cell receptor binding assay, the monolayer cells were rinsed once with PBS (phosphate buffered saline), dissociated using ethylenediaminetetraacetate (Versene™ EDTA from Lonza Inc.), and suspended in PBS containing 10 mM MgCl2 and 0.06% BSA (bovine serum albumin) at 1.5×10^6 cells/mL.
The binding reactions (0.2 mL) were performed in 96-well plates at room temperature in PBS containing 1.5×10^5 cells, 10 mM MgCl2, 0.06% BSA, 20 nM [^3H]ramatroban, and test compound at various concentrations. After 1 hour of binding reactions, the cells were harvested on GF™/B filter microplates (microtiter plates with embedded glass fiber from PerkinElmer, Inc.) and washed 5 times with PBS using a Filtermate™ Harvester (a cell harvester that harvests and washes cells from microplates from PerkinElmer, Inc.). The radioactivities bound to the cells were determined using a microplate scintillation counter (TopCount® NXT, from PerkinElmer, Inc.) after adding 50 μL of Microscint™ 20 scintillation fluid (from PerkinElmer, Inc.) to each well of the filter plates. The radioactivity from non-specific binding was determined by replacing compound with 10 μM of 15(R)-15-methyl PGD2 (from Cayman Chemical Company) in the reaction mixtures. The radioactivity bound to the cells in the absence of compound (total binding) was determined by replacing compound with 0.25% of DMSO (dimethyl sulfoxide) in the reaction mixture. Specific binding data were obtained by subtracting the radioactivity of non-specific binding from each binding data.
The IC50 value is defined as the concentration of the tested compound that is required for 50% inhibition of total specific binding. In order to calculate the IC50 value, the percent inhibition data were determined for 7 concentrations for each compound. The percent inhibition for a compound at each concentration was calculated according to the following formula, [1−(specific binding in the presence of compound)/(total specific binding)]×100. The IC50 value was then obtained by fitting the percent inhibition data to a sigmoidal dose-response (4 parameter logistic) model in the XLfit® software Excel add-in program [from ID Business Solutions Ltd., model 205, where F(x)=(A+(B−A)/(1+((C/x)^D)))].

For the molecule `O=C(O)Cn1ncc2c1CCC[C@H]2NS(=O)(=O)c1cc(Br)cc(C(F)(F)F)c1` [Example 1-1a, [(R)-4-(3-Bromo-5-trifluoromethyl-benzenesulfonylamino)-4,5,6,7-tetrahydro-indazol-1-yl]-acetic acid], the IC50 stood at 13 nM.
As to `O=C(O)Cn1ncc2c1CCCC2NS(=O)(=O)c1cc(Cl)cc(Cl)c1` (centres unmarked) [Example 1-2a, [4-(3,5-Dichloro-benzenesulfonylamino)-4,5,6,7-tetrahydro-indazol-1-yl]-acetic acid], the IC50 came out at 386 nM.
The figure for `O=C(O)Cn1ncc2c1CCCC2NS(=O)(=O)c1ccc(Cl)cc1Cl` (centres unmarked) [Example 1-3a, [4-(2,4-Dichloro-benzenesulfonylamino)-4,5,6,7-tetrahydro-indazol-1-yl]-acetic acid] is 234 nM.
To `O=C(O)Cn1ncc2c1CCC[C@H]2NS(=O)(=O)c1cc(C(F)(F)F)cc(C(F)(F)F)c1` [Example 1-4a, [(R)-4-(3,5-Bis-trifluoromethyl-benzenesulfonylamino)-4,5,6,7-tetrahydro-indazol-1-yl]-acetic acid] belongs 16.4 nM.
As for `Cc1ccc(S(=O)(=O)NC2CCCc3c2cnn3CC(=O)O)cc1[N+](=O)[O-]` (centres unmarked) [Example 1-5a, [4-(4-Methyl-3-nitro-benzenesulfonylamino)-4,5,6,7-tetrahydro-indazol-1-yl]-acetic acid], the concentration for half-maximal inhibition (IC50) turned out to be 225 nM.
To `Cc1cc(C)cc(S(=O)(=O)NC2CCCc3c2cnn3CC(=O)O)c1` (centres unmarked) [Example 1-6a, [4-(3,5-Dimethyl-benzenesulfonylamino)-4,5,6,7-tetrahydro-indazol-1-yl]-acetic acid] belongs 397 nM.
Consider `O=C(O)Cn1ncc2c1CCCC2NS(=O)(=O)c1cc(Br)cc(C(F)(F)F)c1` (centres unmarked) [Example 1-7a, [4-(3-Bromo-5-trifluoromethyl-benzenesulfonylamino)-4,5,6,7-tetrahydro-indazol-1-yl]-acetic acid], for which the half-maximal inhibitory concentration (IC50) was found to be 35.7 nM.
Turning to `O=C(O)Cn1ncc2c1CCCC2NS(=O)(=O)c1ccc(Br)c(F)c1` (centres unmarked) [Example 1-8a, [4-(4-Bromo-3-fluoro-benzenesulfonylamino)-4,5,6,7-tetrahydro-indazol-1-yl]-acetic acid], the 50% inhibitory concentration (IC50) stood at 431 nM.
To `Cc1cc(S(=O)(=O)NC2CCCc3c2cnn3CC(=O)O)ccc1Br` (centres unmarked) [Example 1-9a, [4-(4-Bromo-3-methyl-benzenesulfonylamino)-4,5,6,7-tetrahydro-indazol-1-yl]-acetic acid] belongs 277 nM; to `O=C(O)Cn1ncc2c1CCCC2NS(=O)(=O)c1ccc(Br)c(C(F)(F)F)c1` (centres unmarked) [Example 1-10a, [4-(4-Bromo-3-trifluoromethyl-benzenesulfonylamino)-4,5,6,7-tetrahydro-indazol-1-yl]-acetic acid], 119 nM.
The figure for `O=C(O)Cn1ncc2c1CCCC2NS(=O)(=O)c1cnc(Cl)c(Br)c1` (centres unmarked) [Example 1-11a, [4-(5-Bromo-6-chloro-pyridine-3-sulfonylamino)-4,5,6,7-tetrahydro-indazol-1-yl]-acetic acid] is 291 nM; for `COc1cc(C(F)(F)F)cc(S(=O)(=O)N[C@@H]2CCCc3c2cnn3CC(=O)O)c1` [Example 1-12a, [(R)-4-(3-Methoxy-5-trifluoromethyl-benzenesulfonylamino)-4,5,6,7-tetrahydro-indazol-1-yl]-acetic acid] it is 53.3 nM; for `O=C(O)Cn1ncc2c1CCCC2NS(=O)(=O)c1cc(C(F)(F)F)ccc1C(F)(F)F` (centres unmarked) [Example 1-13a, [4-(2,5-Bis-trifluoromethyl-benzenesulfonylamino)-4,5,6,7-tetrahydro-indazol-1-yl]-acetic acid] it is 205 nM.
To `CS(=O)(=O)c1cccc(S(=O)(=O)NC2CCCc3c2cnn3CC(=O)O)c1` (centres unmarked) [Example 1-14a, [4-(3-Methanesulfonyl-benzenesulfonylamino)-4,5,6,7-tetrahydro-indazol-1-yl]-acetic acid] belongs 43.2 nM.

By IC50 is commonly meant the concentration that inhibits the measured activity by half.

The values are drawn from patent publication US8124641B2, “Aminotetrahydroindazoloacetic acids” (Hoffmann-La Roche Inc., priority 2008, dated 2012).
